{"source": "patent US5672715A", "about": "“Herbicidal substituted 3-aryl-pyrazoles” (Monsanto Company, priority 1995, dated 1997)", "format_in_all_cases": "in vivo", "key": {"Cocklebur [1]": {"test_system": "Cocklebur", "test": "post-emergence herbicide test", "conditions": "Xanthium strumarium, post-emergence, read-out: % plant inhibition", "summary_of_the_method": "(§1)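 Sown pans kept on a greenhouse bench with irrigation or subirrigation until plants reached two to three weeks, then sprayed at 170.3 kPa (10 psig). Spray mix held about 0.4% by volume emulsifier; total volume 1870 L/Ha. Result expressed as percent inhibition.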"}, "Bedstraw Catchweed": {"test_system": "Bedstraw Catchweed", "test": "post-emergence herbicide test", "conditions": "Galium aparine, post-emergence, read-out: % plant inhibition", "summary_of_the_method": "as §1"}, "Common Chickweed": {"test_system": "Common Chickweed", "test": "post-emergence herbicide test", "conditions": "post-emergence, read-out: % plant inhibition", "summary_of_the_method": "as §1"}, "Morning Glory [2]": {"test_system": "Morning Glory", "test": "post-emergence herbicide test", "conditions": "Ipomoea, post-emergence, read-out: % plant inhibition", "summary_of_the_method": "as §1"}, "Barnyardgrass [3]": {"test_system": "Barnyardgrass", "test": "post-emergence herbicide test", "conditions": "Echinochloa crus-galli, post-emergence, read-out: % plant inhibition", "summary_of_the_method": "as §1"}, "Yellow Nutsedge [4]": {"test_system": "Yellow Nutsedge", "test": "post-emergence herbicide test", "conditions": "Cyperus, read-out: % plant inhibition", "summary_of_the_method": "as §1"}, "Yellow Foxtail [5]": {"test_system": "Yellow Foxtail", "test": "post-emergence herbicide test", "conditions": "Setaria, read-out: % plant inhibition", "summary_of_the_method": "as §1"}, "Cocklebur [6]": {"test_system": "Cocklebur", "test": "pre-emergence herbicide test", "conditions": "Xanthium strumarium, pre-emergence, read-out: % plant inhibition", "summary_of_the_method": "(§2)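 Known amounts of active ingredient went into the cover soil over seeds sown in pans, either before or after the layer was spread. An initial 1/4 inch overhead irrigation was given in some cases; otherwise pans were subirrigated. Rating was % inhibition at ~14 days.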"}, "Velvetleaf": {"test_system": "Velvetleaf", "test": "pre-emergence herbicide test", "conditions": "Abutilon theophrasti, pre-emergence, read-out: % plant inhibition", "summary_of_the_method": "as §2"}, "Rice": {"test_system": "Rice", "test": "pre-emergence herbicide test", "conditions": "Oryza sativa, read-out: % plant inhibition", "summary_of_the_method": "as §2"}, "Morning Glory [7]": {"test_system": "Morning Glory", "test": "pre-emergence herbicide test", "conditions": "Ipomoea, pre-emergence, read-out: % plant inhibition", "summary_of_the_method": "as §2"}, "Soybean": {"test_system": "Soybean", "test": "pre-emergence herbicide test", "conditions": "Glycine max, pre-emergence, read-out: % plant inhibition", "summary_of_the_method": "as §2"}, "Barnyardgrass [8]": {"test_system": "Barnyardgrass", "test": "pre-emergence herbicide test", "conditions": "Echinochloa crus-galli, pre-emergence, read-out: % plant inhibition", "summary_of_the_method": "as §2"}, "Yellow Nutsedge [9]": {"test_system": "Yellow Nutsedge", "test": "pre-emergence herbicide test", "conditions": "Cyperus, read-out: % plant inhibition", "summary_of_the_method": "as §2"}, "Corn": {"test_system": "Corn", "test": "pre-emergence herbicide test", "conditions": "Zea mays, pre-emergence, read-out: % plant inhibition", "summary_of_the_method": "as §2"}, "Yellow Foxtail [10]": {"test_system": "Yellow Foxtail", "test": "pre-emergence herbicide test", "conditions": "Setaria, read-out: % plant inhibition", "summary_of_the_method": "as §2"}}, "data": [{"compound": "Cc1c(-c2cc(OCC(=O)OC(C)C)c(Cl)cc2F)nn(C)c1C(F)(F)F", "note": "[Compound 38]", "values": [{"measurement": "inhibition at 7.95803 g/ha", "setting": "Cocklebur [1]; 0.0071 lb/A", "result": 80, "unit": "%"}, {"measurement": "inhibition at 40.0143 g/ha", "setting": "Cocklebur [1]; 0.0357 lb/A", "result": 80, "unit": "%"}, {"measurement": "inhibition at 200.072 g/ha", "setting": "Cocklebur [1]; 0.1785 lb/A", "result": 80, "unit": "%"}, {"measurement": "inhibition at 280.212 g/ha", "setting": "Cocklebur [1]; 0.25 lb/A", "result": 100, "unit": "%"}, {"measurement": "inhibition at 1000.92 g/ha", "setting": "Cocklebur [1]; 0.893 lb/A", "result": 100, "unit": "%"}, {"measurement": "inhibition at 7.95803 g/ha", "setting": "Bedstraw Catchweed; 0.0071 lb/A", "result": 35, "unit": "%"}, {"measurement": "inhibition at 40.0143 g/ha", "setting": "Bedstraw Catchweed; 0.0357 lb/A", "result": 85, "unit": "%"}, {"measurement": "inhibition at 200.072 g/ha", "setting": "Bedstraw Catchweed; 0.1785 lb/A", "result": 90, "unit": "%"}, {"measurement": "inhibition at 1000.92 g/ha", "setting": "Bedstraw Catchweed; 0.893 lb/A", "result": 85, "unit": "%"}, {"measurement": "inhibition at 7.95803 g/ha", "setting": "Common Chickweed; 0.0071 lb/A", "result": 65, "unit": "%"}, {"measurement": "inhibition at 40.0143 g/ha", "setting": "Common Chickweed; 0.0357 lb/A", "result": 75, "unit": "%"}, {"measurement": "inhibition at 200.072 g/ha", "setting": "Common Chickweed; 0.1785 lb/A", "result": 95, "unit": "%"}, {"measurement": "inhibition at 1000.92 g/ha", "setting": "Common Chickweed; 0.893 lb/A", "result": 98, "unit": "%"}, {"measurement": "inhibition at 7.95803 g/ha", "setting": "Morning Glory [2]; 0.0071 lb/A", "result": 80, "unit": "%"}, {"measurement": "inhibition at 40.0143 g/ha", "setting": "Morning Glory [2]; 0.0357 lb/A", "result": 100, "unit": "%"}, {"measurement": "inhibition at 200.072 g/ha", "setting": "Morning Glory [2]; 0.1785 lb/A", "result": 100, "unit": "%"}, {"measurement": "inhibition at 280.212 g/ha", "setting": "Morning Glory [2]; 0.25 lb/A", "result": 95, "unit": "%"}, {"measurement": "inhibition at 1000.92 g/ha", "setting": "Morning Glory [2]; 0.893 lb/A", "result": 100, "unit": "%"}, {"measurement": "inhibition at 7.95803 g/ha", "setting": "Barnyardgrass [3]; 0.0071 lb/A", "result": 10, "unit": "%"}, {"measurement": "inhibition at 40.0143 g/ha", "setting": "Barnyardgrass [3]; 0.0357 lb/A", "result": 10, "unit": "%"}, {"measurement": "inhibition at 200.072 g/ha", "setting": "Barnyardgrass [3]; 0.1785 lb/A", "result": 15, "unit": "%"}, {"measurement": "inhibition at 1000.92 g/ha", "setting": "Barnyardgrass [3]; 0.893 lb/A", "result": 15, "unit": "%"}, {"measurement": "inhibition at 7.95803 g/ha", "setting": "Yellow Nutsedge [4]; 0.0071 lb/A", "result": 35, "unit": "%"}, {"measurement": "inhibition at 40.0143 g/ha", "setting": "Yellow Nutsedge [4]; 0.0357 lb/A", "result": 25, "unit": "%"}, {"measurement": "inhibition at 200.072 g/ha", "setting": "Yellow Nutsedge [4]; 0.1785 lb/A", "result": 25, "unit": "%"}, {"measurement": "inhibition at 1000.92 g/ha", "setting": "Yellow Nutsedge [4]; 0.893 lb/A", "result": 25, "unit": "%"}, {"measurement": "inhibition at 7.95803 g/ha", "setting": "Yellow Foxtail [5]; 0.0071 lb/A", "result": 0, "unit": "%"}, {"measurement": "inhibition at 40.0143 g/ha", "setting": "Yellow Foxtail [5]; 0.0357 lb/A", "result": 35, "unit": "%"}, {"measurement": "inhibition at 200.072 g/ha", "setting": "Yellow Foxtail [5]; 0.1785 lb/A", "result": 10, "unit": "%"}, {"measurement": "inhibition at 1000.92 g/ha", "setting": "Yellow Foxtail [5]; 0.893 lb/A", "result": 15, "unit": "%"}, {"measurement": "inhibition at 40.0143 g/ha", "setting": "Cocklebur [6]; 0.0357 lb/A", "result": 65, "unit": "%"}, {"measurement": "inhibition at 200.072 g/ha", "setting": "Cocklebur [6]; 0.1785 lb/A", "result": 85, "unit": "%"}, {"measurement": "inhibition at 280.212 g/ha", "setting": "Cocklebur [6]; 0.25 lb/A", "result": 70, "unit": "%"}, {"measurement": "inhibition at 1000.92 g/ha", "setting": "Cocklebur [6]; 0.893 lb/A", "result": 90, "unit": "%"}, {"measurement": "inhibition at 7.95803 g/ha", "setting": "Velvetleaf; 0.0071 lb/A", "result": 100, "unit": "%"}, {"measurement": "inhibition at 40.0143 g/ha", "setting": "Velvetleaf; 0.0357 lb/A", "result": 80, "unit": "%"}, {"measurement": "inhibition at 200.072 g/ha", "setting": "Velvetleaf; 0.1785 lb/A", "result": 98, "unit": "%"}, {"measurement": "inhibition at 280.212 g/ha", "setting": "Velvetleaf; 0.25 lb/A", "result": 100, "unit": "%"}, {"measurement": "inhibition at 1000.92 g/ha", "setting": "Velvetleaf; 0.893 lb/A", "result": 100, "unit": "%"}, {"measurement": "inhibition at 7.95803 g/ha", "setting": "Rice; 0.0071 lb/A", "result": 0, "unit": "%"}, {"measurement": "inhibition at 40.0143 g/ha", "setting": "Rice; 0.0357 lb/A", "result": 0, "unit": "%"}, {"measurement": "inhibition at 200.072 g/ha", "setting": "Rice; 0.1785 lb/A", "result": 0, "unit": "%"}, {"measurement": "inhibition at 1000.92 g/ha", "setting": "Rice; 0.893 lb/A", "result": 40, "unit": "%"}, {"measurement": "inhibition at 7.95803 g/ha", "setting": "Morning Glory [7]; 0.0071 lb/A", "result": 20, "unit": "%"}, {"measurement": "inhibition at 40.0143 g/ha", "setting": "Morning Glory [7]; 0.0357 lb/A", "result": 75, "unit": "%"}, {"measurement": "inhibition at 200.072 g/ha", "setting": "Morning Glory [7]; 0.1785 lb/A", "result": 95, "unit": "%"}, {"measurement": "inhibition at 280.212 g/ha", "setting": "Morning Glory [7]; 0.25 lb/A", "result": 100, "unit": "%"}, {"measurement": "inhibition at 1000.92 g/ha", "setting": "Morning Glory [7]; 0.893 lb/A", "result": 100, "unit": "%"}, {"measurement": "inhibition at 7.95803 g/ha", "setting": "Soybean; 0.0071 lb/A", "result": 0, "unit": "%"}, {"measurement": "inhibition at 40.0143 g/ha", "setting": "Soybean; 0.0357 lb/A", "result": 5, "unit": "%"}, {"measurement": "inhibition at 280.212 g/ha", "setting": "Soybean; 0.25 lb/A", "result": 0, "unit": "%"}, {"measurement": "inhibition at 1000.92 g/ha", "setting": "Soybean; 0.893 lb/A", "result": 70, "unit": "%"}, {"measurement": "inhibition at 7.95803 g/ha", "setting": "Barnyardgrass [8]; 0.0071 lb/A", "result": 0, "unit": "%"}, {"measurement": "inhibition at 40.0143 g/ha", "setting": "Barnyardgrass [8]; 0.0357 lb/A", "result": 15, "unit": "%"}, {"measurement": "inhibition at 200.072 g/ha", "setting": "Barnyardgrass [8]; 0.1785 lb/A", "result": 35, "unit": "%"}, {"measurement": "inhibition at 1000.92 g/ha", "setting": "Barnyardgrass [8]; 0.893 lb/A", "result": 70, "unit": "%"}, {"measurement": "inhibition at 7.95803 g/ha", "setting": "Yellow Nutsedge [9]; 0.0071 lb/A", "result": 0, "unit": "%"}, {"measurement": "inhibition at 40.0143 g/ha", "setting": "Yellow Nutsedge [9]; 0.0357 lb/A", "result": 20, "unit": "%"}, {"measurement": "inhibition at 200.072 g/ha", "setting": "Yellow Nutsedge [9]; 0.1785 lb/A", "result": 0, "unit": "%"}, {"measurement": "inhibition at 1000.92 g/ha", "setting": "Yellow Nutsedge [9]; 0.893 lb/A", "result": 85, "unit": "%"}, {"measurement": "inhibition at 7.95803 g/ha", "setting": "Corn; 0.0071 lb/A", "result": 0, "unit": "%"}, {"measurement": "inhibition at 40.0143 g/ha", "setting": "Corn; 0.0357 lb/A", "result": 0, "unit": "%"}, {"measurement": "inhibition at 200.072 g/ha", "setting": "Corn; 0.1785 lb/A", "result": 0, "unit": "%"}, {"measurement": "inhibition at 1000.92 g/ha", "setting": "Corn; 0.893 lb/A", "result": 40, "unit": "%"}, {"measurement": "inhibition at 7.95803 g/ha", "setting": "Yellow Foxtail [10]; 0.0071 lb/A", "result": 0, "unit": "%"}, {"measurement": "inhibition at 40.0143 g/ha", "setting": "Yellow Foxtail [10]; 0.0357 lb/A", "result": 0, "unit": "%"}, {"measurement": "inhibition at 200.072 g/ha", "setting": "Yellow Foxtail [10]; 0.1785 lb/A", "result": 25, "unit": "%"}, {"measurement": "inhibition at 280.212 g/ha", "setting": "Yellow Foxtail [10]; 0.25 lb/A", "result": 40, "unit": "%"}, {"measurement": "inhibition at 1000.92 g/ha", "setting": "Yellow Foxtail [10]; 0.893 lb/A", "result": 65, "unit": "%"}]}]}
